Test results from PubChem BioAssay (NCI).
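Each compound was tested at five concentrations against cells in 96-well plates for 48 hours. GI50 marks 50% less growth. TGI: total growth inhibition.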

Tests used:
Test in all cases: inhibition of tumour cell growth, NCI panel, 48 h
DMS 273 small cell lung = test system: DMS 273 small cell lung
HOP-92 NSCLC = test system: HOP-92 NSCLC
K-562 leukemia = test system: K-562 leukemia
KM12 colon = test system: KM12 colon
LXFL 529 NSCLC = test system: LXFL 529 NSCLC
NCI-H23 lung = test system: NCI-H23 lung
SF-295 CNS = test system: SF-295 CNS
SK-MEL-28 melanoma = test system: SK-MEL-28 melanoma
SK-MEL-5 melanoma = test system: SK-MEL-5 melanoma
T-47D breast = test system: T-47D breast

## NNC(=O)CCC(=O)Nc1cc(Cl)c(Cl)cc1Cl
DMS 273 small cell lung
  TGI: > 100 µM
HOP-92 NSCLC
  TGI: > 100 µM
K-562 leukemia
  TGI: > 100 µM
KM12 colon
  TGI: > 100 µM
LXFL 529 NSCLC
  TGI: > 100 µM
NCI-H23 lung
  TGI: > 100 µM
SF-295 CNS
  TGI: > 100 µM
SK-MEL-28 melanoma
  TGI: > 100 µM
SK-MEL-5 melanoma
  TGI: > 100 µM

## COc1ccc(C2=NN(C(=O)COc3ccc(Cl)cc3)C(O)(c3ccc(Cl)cc3)C2)cc1 (stereo not drawn)
DMS 273 small cell lung
  TGI: > 100 µM
HOP-92 NSCLC
  TGI: > 100 µM
K-562 leukemia
  TGI: > 100 µM
KM12 colon
  TGI: > 100 µM
LXFL 529 NSCLC
  TGI: > 100 µM
NCI-H23 lung
  TGI: > 100 µM
SF-295 CNS
  TGI: > 100 µM
SK-MEL-28 melanoma
  TGI: > 100 µM

## CC1CC(c2cccc3c2OCO3)=Nc2ccccc2S1 (stereo not drawn)
DMS 273 small cell lung
  TGI: > 100 µM
HOP-92 NSCLC
  TGI: > 100 µM
K-562 leukemia
  TGI: > 100 µM
KM12 colon
  TGI: > 100 µM
LXFL 529 NSCLC
  TGI: > 100 µM
NCI-H23 lung
  TGI: > 100 µM
SF-295 CNS
  TGI: > 100 µM
SK-MEL-28 melanoma
  TGI: > 100 µM
SK-MEL-5 melanoma
  TGI: > 100 µM

## CC(/C(=N/NC(=O)C(N)=O)c1c(Cl)ccc(Cl)c1O)C1(O)C(=O)Nc2ccccc21 (stereo not drawn)
DMS 273 small cell lung
  TGI: > 100 µM
HOP-92 NSCLC
  TGI: 75.2 µM
K-562 leukemia
  TGI: > 100 µM
KM12 colon
  TGI: > 100 µM
LXFL 529 NSCLC
  TGI: > 100 µM
NCI-H23 lung
  TGI: > 100 µM
SF-295 CNS
  TGI: > 100 µM
SK-MEL-28 melanoma
  TGI: > 100 µM
SK-MEL-5 melanoma
  TGI: > 100 µM

## CS(=O)(=O)OCCn1cnc2nc(NC(=O)c3ccccc3)[nH]c(=O)c21
DMS 273 small cell lung
  TGI: > 100 µM
HOP-92 NSCLC
  TGI: > 100 µM
K-562 leukemia
  TGI: > 100 µM
KM12 colon
  TGI: > 100 µM
LXFL 529 NSCLC
  TGI: > 100 µM
SF-295 CNS
  TGI: > 100 µM
SK-MEL-28 melanoma
  TGI: > 100 µM
SK-MEL-5 melanoma
  TGI: > 100 µM

## CCOC(=O)C1=C(NNC(=O)Cc2ccccc2)CSC1=Nc1ccccc1
DMS 273 small cell lung
  TGI: > 100 µM
HOP-92 NSCLC
  TGI: > 100 µM
K-562 leukemia
  TGI: > 100 µM
KM12 colon
  TGI: > 100 µM
LXFL 529 NSCLC
  TGI: > 100 µM
NCI-H23 lung
  TGI: > 100 µM
SF-295 CNS
  TGI: > 100 µM
SK-MEL-28 melanoma
  TGI: > 100 µM
SK-MEL-5 melanoma
  TGI: > 100 µM

## NC1=C(Br)C(=O)c2ncccc2C1=O
DMS 273 small cell lung
  TGI: 1.44 µM
HOP-92 NSCLC
  TGI: 3.06 µM
K-562 leukemia
  TGI: 1.01 µM
KM12 colon
  TGI: 2.7 µM
LXFL 529 NSCLC
  TGI: 0.8 µM
NCI-H23 lung
  TGI: 0.668 µM
SF-295 CNS
  TGI: 1.41 µM
SK-MEL-28 melanoma
  TGI: 1.25 µM
SK-MEL-5 melanoma
  TGI: 1.46 µM
T-47D breast
  GI50: 1.69 µM
  TGI: 4.1 µM

## C=C1C(=O)OC2C1CC[C@H](C)C13OC(=O)CC1[C@@]23C (stereo partly drawn)
DMS 273 small cell lung
  TGI: > 100 µM
HOP-92 NSCLC
  TGI: > 100 µM
K-562 leukemia
  TGI: > 100 µM
KM12 colon
  TGI: > 100 µM
LXFL 529 NSCLC
  TGI: > 100 µM
NCI-H23 lung
  TGI: > 100 µM
SF-295 CNS
  TGI: > 100 µM
SK-MEL-28 melanoma
  TGI: > 100 µM
SK-MEL-5 melanoma
  TGI: > 100 µM

## O=c1c(Sc2c(O)c3ccccc3c3ccccc3c2=O)c(O)c2ccccc2c2ccccc12
DMS 273 small cell lung
  TGI: > 100 µM
HOP-92 NSCLC
  TGI: > 100 µM
K-562 leukemia
  TGI: > 100 µM
KM12 colon
  TGI: > 100 µM
LXFL 529 NSCLC
  TGI: > 100 µM
NCI-H23 lung
  TGI: 94.7 µM
SF-295 CNS
  TGI: > 100 µM
SK-MEL-28 melanoma
  TGI: > 100 µM
SK-MEL-5 melanoma
  TGI: > 100 µM

## Nc1ncnc2c1ncn2CC(O)C(=O)O (stereo not drawn)
DMS 273 small cell lung
  TGI: > 100 µM
HOP-92 NSCLC
  TGI: > 100 µM
K-562 leukemia
  TGI: > 100 µM
KM12 colon
  TGI: > 100 µM
LXFL 529 NSCLC
  TGI: > 100 µM
NCI-H23 lung
  TGI: > 100 µM
SF-295 CNS
  TGI: > 100 µM
SK-MEL-28 melanoma
  TGI: > 100 µM
SK-MEL-5 melanoma
  TGI: > 100 µM
T-47D breast
  TGI: > 100 µM

## Fc1cccc2cc3ccc4cccc5ccc(c12)c3c45
DMS 273 small cell lung
  TGI: > 100 µM
K-562 leukemia
  TGI: > 100 µM
KM12 colon
  TGI: > 100 µM
LXFL 529 NSCLC
  TGI: > 100 µM
NCI-H23 lung
  TGI: > 100 µM
SF-295 CNS
  TGI: > 100 µM
SK-MEL-28 melanoma
  TGI: > 100 µM
SK-MEL-5 melanoma
  TGI: > 100 µM

## CC(=O)Nc1ccc(/C=N\N2C(=O)c3ccccc3C2=O)cc1
DMS 273 small cell lung
  TGI: > 100 µM
HOP-92 NSCLC
  TGI: > 100 µM
K-562 leukemia
  TGI: > 100 µM
KM12 colon
  TGI: > 100 µM
LXFL 529 NSCLC
  TGI: > 100 µM
NCI-H23 lung
  TGI: > 100 µM
SF-295 CNS
  TGI: > 100 µM
SK-MEL-28 melanoma
  TGI: > 100 µM
SK-MEL-5 melanoma
  TGI: > 100 µM
